How the values were obtained:
Experiment in all cases: MTS proliferation assay
Assay type in all cases: cell-based, human
GEO = system: GEO
Protocol: (§1) Cell lines and in vitro cytotoxicity assay. Cells were maintained at 37° C. under standard cell culture conditions. Cells were plated at an optimized density for each cell line per well in 96-well microtiter FALCON® plates, incubated overnight, and then exposed to a serial dilution of drug. […] The results were expressed as an IC50, which is the drug concentration required to inhibit cell proliferation to 50% of that of untreated control cells. The mean IC50 and standard deviation (SD) from multiple tests for each cell line were calculated.
(§2) In vitro Cellular Proliferation Assays.

CX-1 = system: CX-1
Protocol: as §1, §2

SW48 = system: SW48
Protocol: as §1, §2

KM12SM = system: KM12SM
Protocol: as §1, §2

LS174T = system: LS174T
Protocol: as §1, §2

LS-1034 = system: LS-1034
Protocol: as §1, §2

SNU-C2B = system: SNU-C2B
Protocol: as §1, §2

RKO PM = system: RKO PM
Protocol: as §1, §2

COLO-201 = system: COLO-201
Protocol: as §1, §2

HCC-56 = system: HCC-56
Protocol: as §1, §2

COLO-205 = system: COLO-205
Protocol: as §1, §2

NCI-H716 = system: NCI-H716
Protocol: as §1, §2

SW837 = system: SW837
Protocol: as §1, §2

RCM-1 = system: RCM-1
Protocol: as §1, §2

SW1463 = system: SW1463
Protocol: as §1, §2

SW620 = system: SW620
Protocol: as §1, §2

SW403 = system: SW403
Protocol: as §1, §2

COLO-678 = system: COLO-678
Protocol: as §1, §2

SNU-C1 = system: SNU-C1
Protocol: as §1, §2

COLO-320-HSR = system: COLO-320-HSR
Protocol: as §1, §2

SW1116 = system: SW1116
Protocol: as §1, §2

RKO-RM13 = system: RKO-RM13
Protocol: as §1, §2

HCT8 = system: HCT8
Protocol: as §1, §2

HCT-116 = system: HCT-116
Protocol: as §1, §2

COLO320DM = system: COLO320DM
Protocol: as §1, §2

MIP = system: MIP
Protocol: as §1, §2

SNU-81 = system: SNU-81
Protocol: as §1, §2

LS-123 = system: LS-123
Protocol: as §1, §2

What does the source list for `C[C@@]1(C(=O)Nc2ccc(F)nc2)CCCN1c1nc(Nc2cc(C3CC3)n[nH]2)c2cccn2n1` [BMS-754807, (2S)-1-(4-((5-cyclopropyl-1H-pyrazol-3-yl)amino)pyrrolo[2,1-f][1,2,4]triazin-2-yl)-N-(6-fluoro-3-pyridinyl)-2-methyl-2-pyrrolidinecarboxamide]?
Sensitivity Classes (GEO; GEO): R (“R” refers Resistant); Sensitivity to BMS-754807 (GEO; GEO, preliminary panel of 45 CRC cell lines): Intermediate (remaining 30 cell lines classified as Intermediate or resistant); IC50 (GEO; Homo sapiens, 72 h): 407 nM; Sensitivity Classes (CX-1; CX-1): R (“R” refers Resistant); Sensitivity to BMS-754807 (CX-1; CX-1, preliminary panel of 45 CRC cell lines): Intermediate (remaining 30 cell lines classified as Intermediate or resistant); IC50 (CX-1; Homo sapiens, CX-1, 72 h): 194 nM; IC50 (SW48; Homo sapiens, SW48, 72 h): 13 nM; Sensitivity Classes (SW48; SW48): S (“S” refers Sensitive); Sensitivity to BMS-754807 (SW48; SW48, preliminary panel of 45 CRC cell lines): Sensitive (a sensitive cell line was classified as one with an IC50 of ≦50 nmol/L); IC50 (KM12SM; Homo sapiens, 72 h): 37 nM; Sensitivity Classes (KM12SM; KM12SM): S (“S” refers Sensitive); Sensitivity to BMS-754807 (KM12SM; KM12SM, preliminary panel of 45 CRC cell lines): Sensitive (a sensitive cell line was classified as one with an IC50 of ≦50 nmol/L); Sensitivity Classes (LS174T): R (“R” refers Resistant); IC50 (LS174T; Homo sapiens, 72 h): 358 nM; Sensitivity to BMS-754807 (LS174T; preliminary panel of 45 CRC cell lines): Intermediate (remaining 30 cell lines classified as Intermediate or resistant); IC50 (LS-1034; Homo sapiens, LS-1034, 72 h): 44 nM; Sensitivity to BMS-754807 (LS-1034; LS1034, preliminary panel of 45 CRC cell lines): Sensitive (a sensitive cell line was classified as one with an IC50 of ≦50 nmol/L); Sensitivity Classes (LS-1034; LS-1034): S (“S” refers Sensitive); IC50 (SNU-C2B; Homo sapiens, SNU-C2B, 72 h): 1480 nM; Sensitivity Classes (SNU-C2B; SNU-C2B): R (“R” refers Resistant); Sensitivity to BMS-754807 (SNU-C2B; SNUC2B, preliminary panel of 45 CRC cell lines): Resistant (resistant cell lines had IC50 values of >50 nmol/L); IC50 (RKO PM; Homo sapiens, 72 h): 857 nM; Sensitivity Classes (RKO PM; RKO PM): R (“R” refers Resistant); Sensitivity to BMS-754807 (RKO PM; RKO PM, preliminary panel of 45 CRC cell lines): Resistant (resistant cell lines had IC50 values of >50 nmol/L); Sensitivity to BMS-754807 (COLO-201; COLO201, preliminary panel of 45 CRC cell lines): Resistant (resistant cell lines had IC50 values of >50 nmol/L); Sensitivity Classes (COLO-201; COLO-201): R (“R” refers Resistant); IC50 (COLO-201; Homo sapiens, COLO 201, 72 h): 2760 nM; Sensitivity Classes (HCC-56; HCC-56): S (“S” refers Sensitive); IC50 (HCC-56; Homo sapiens, 72 h): 5 nM; Sensitivity to BMS-754807 (COLO-205; COLO205, preliminary panel of 45 CRC cell lines): Intermediate (remaining 30 cell lines classified as Intermediate or resistant); Sensitivity Classes (COLO-205; COLO-205): R (“R” refers Resistant); IC50 (COLO-205; Homo sapiens, COLO 205, 72 h): 242 nM; IC50 (NCI-H716; Homo sapiens, NCI-H716, 72 h): 217 nM; Sensitivity Classes (NCI-H716; NCI-H716): R (“R” refers Resistant); Sensitivity to BMS-754807 (NCI-H716; NCI-H716, preliminary panel of 45 CRC cell lines): Intermediate (remaining 30 cell lines classified as Intermediate or resistant); IC50 (SW837; Homo sapiens, SW837, 72 h): 1890 nM; Sensitivity Classes (SW837; SW837): R (“R” refers Resistant); Sensitivity to BMS-754807 (SW837; SW837, preliminary panel of 45 CRC cell lines): Resistant (resistant cell lines had IC50 values of >50 nmol/L); IC50 (RCM-1; Homo sapiens, RCM-1, 72 h): 24 nM; Sensitivity Classes (RCM-1; RCM-1): S (“S” refers Sensitive); IC50 (SW1463; Homo sapiens, SW1463, 72 h): 16 nM; Sensitivity Classes (SW1463; SW1463): S (“S” refers Sensitive); Sensitivity to BMS-754807 (SW1463; SW1463, preliminary panel of 45 CRC cell lines): Sensitive (a sensitive cell line was classified as one with an IC50 of ≦50 nmol/L); IC50 (SW620; Homo sapiens, SW-620, 72 h): 1830 nM; Sensitivity Classes (SW620; SW620): R (“R” refers Resistant); Sensitivity to BMS-754807 (SW620; SW620, preliminary panel of 45 CRC cell lines): Resistant (resistant cell lines had IC50 values of >50 nmol/L); IC50 (SW403; Homo sapiens, SW-403, 72 h): 34 nM; Sensitivity Classes (SW403; SW403): S (“S” refers Sensitive); Sensitivity to BMS-754807 (SW403; SW403, preliminary panel of 45 CRC cell lines): Sensitive (a sensitive cell line was classified as one with an IC50 of ≦50 nmol/L); Sensitivity Classes (COLO-678; COLO-678): R (“R” refers Resistant); IC50 (COLO-678; Homo sapiens, COLO-678, 72 h): 192 nM; IC50 (SNU-C1; Homo sapiens, SNU-C1, 72 h): 13 nM; Sensitivity Classes (SNU-C1; SNU-C1): S (“S” refers Sensitive); Sensitivity to BMS-754807 (SNU-C1; SNUC1, preliminary panel of 45 CRC cell lines): Sensitive (a sensitive cell line was classified as one with an IC50 of ≦50 nmol/L); Sensitivity to BMS-754807 (COLO-320-HSR; COLO320HSR, preliminary panel of 45 CRC cell lines): Sensitive (a sensitive cell line was classified as one with an IC50 of ≦50 nmol/L); Sensitivity Classes (COLO-320-HSR; COLO-320-HSR): S (“S” refers Sensitive); IC50 (COLO-320-HSR; Homo sapiens, COLO-320-HSR, 72 h): 35 nM; IC50 (SW1116; Homo sapiens, SW 1116, 72 h): 24 nM; Sensitivity Classes (SW1116; SW1116): S (“S” refers Sensitive); Sensitivity to BMS-754807 (SW1116; SW1116, preliminary panel of 45 CRC cell lines): Sensitive (a sensitive cell line was classified as one with an IC50 of ≦50 nmol/L); IC50 (RKO-RM13; Homo sapiens, 72 h): 727 nM; Sensitivity Classes (RKO-RM13; RKO-RM13): R (“R” refers Resistant); Sensitivity to BMS-754807 (RKO-RM13; RKO-RM13, preliminary panel of 45 CRC cell lines): Resistant (resistant cell lines had IC50 values of >50 nmol/L); Sensitivity Classes (HCT8; HCT8): R (“R” refers Resistant); Sensitivity to BMS-754807 (HCT8; HCT8, preliminary panel of 45 CRC cell lines): Resistant (resistant cell lines had IC50 values of >50 nmol/L); IC50 (HCT8; Homo sapiens, HCT-8, 72 h): 4860 nM; Sensitivity to BMS-754807 (HCT-116; HCT116, preliminary panel of 45 CRC cell lines): Resistant (resistant cell lines had IC50 values of >50 nmol/L); Sensitivity Classes (HCT-116; HCT-116): R (“R” refers Resistant); IC50 (HCT-116; Homo sapiens, HCT-116, 72 h): 503 nM; Sensitivity Classes (COLO320DM; COLO320DM): S (“S” refers Sensitive); Sensitivity to BMS-754807 (COLO320DM; COLO320DM, preliminary panel of 45 CRC cell lines): Sensitive (a sensitive cell line was classified as one with an IC50 of ≦50 nmol/L); IC50 (COLO320DM; Homo sapiens, COLO 320DM, 72 h): 41 nM; Sensitivity Classes (MIP): R (“R” refers Resistant); IC50 (MIP; Homo sapiens, 72 hrs): 4360 nM; IC50 (SNU-81; Homo sapiens, 72 h): 5000 nM; Sensitivity Classes (SNU-81; SNU-81): R (“R” refers Resistant); IC50 (LS-123; Homo sapiens, LS-123, 72 h): 4470 nM; Sensitivity to BMS-754807 (LS-123; LS123, preliminary panel of 45 CRC cell lines): Resistant (resistant cell lines had IC50 values of >50 nmol/L); Sensitivity Classes (LS-123; LS-123): R (“R” refers Resistant)

From patent US20140309229A1, “METHODS FOR SELECTING AND TREATING CANCER IN PATIENTS WITH IGF-1R/IR INHIBITORS” (priority 2011, published 2014)
